From patent US20190256827A1, “EPIGENOME EDITING SYSTEMS AND METHODS” (STC.UNM, priority 2017, published 2019)

Experiments:
Assay type in all cases: cell-based, human
[1] = test system: GAL4DBD-TIR1*/VP16AD-AID, inducible luciferase reporter in HEK293T cells; assay: Inducible luciferase reporter assay, IAA-responsive system (orthogonality and reversibility)
Experimental: To ensure that IAA and ABA could be used to independently control two histone modification editing events, the orthogonality between these two systems was tested. HEK293T cells were co-transfected with either GAL4DBD-TIR1*/VP16AD-AID (responsive to IAA) or GAL4DBD-ABI/VP16AD-PYL (responsive to ABA), and an inducible luciferase reporter construct. This was followed by treating cells with either IAA or ABA (or DMSO as a control) for 24 hours. […] To test the reversibility of IAA-induced dimerization, in which it was critical to achieve precise temporal control, HEK293T cells were co-transfected with GAL4DBD-TIR1*, VP16AD-AID, and an inducible luciferase expression construct, and then treated cells with 50 μM IAA for 24 hours. Cells were then washed with fresh media without IAA to remove the inducer (or no washing as a control). They were then harvested for luciferase assays after washing.

[2] = test system: TIR1*/AID dimerization, inducible EGFP reporter in HEK293T cells; assay: IAA-inducible EGFP transcriptional activation assay (GAL4DBD-TIR1* or GAL4DBD-TIR1^WT with VP16AD-AID); conditions: with or without IAA for 24 hours
Source text: Based on sequence alignment analysis against Arabidopsis thaliana TIR1, a mutant form of Oryza sativa TIR1 (TIR1*) was engineered. TIR1* contained a double mutation, where glutamic acid residues at position 7 and position 10 were replaced with lysine residues (YFPEKVVKHIFSFL, SEQ ID NO:125) that inhibited the ability of TIR* to interact with the SCF complex. To test if TIR1* indeed no longer mediated IAA-induced degradation, but would still bind to AID in the presence of IAA, an IAA-inducible EGFP transcriptional activation assay was constructed. In this assay, EGFP would only be expressed when a functional transcriptional activator was reconstituted by IAA from the two split halves (a DNA binding domain, DBD, and an activation domain, AD, each linked to an IAA-dimerizable protein, TIR* and AID). DNA constructs were made that encoded fusion proteins of GAL4DBD-TIR1*, GAL4DBD-TIR1^WT (the mutant (TIR*) and the wild type TIR1 (TIR1^WT) fused to DBD from GAL4, respectively) and VP16AD-AID (AID fused to VP16 AD). If the AID fusion protein was degraded or the dimerization of TIR1 and AID was disrupted, no EGFP expression would occur. Either GAL4DBD-TIR1* or GAL4DBD-TIR1^WT was co-transfected with VP16AD-AID and an inducible EGFP reporter construct that contains 5×GALDBD binding sites into HEK293T cells with or without the addition of IAA for 24 hours.

[3] = test system: IL1RN mRNA in HEK293T cells; assay: qPCR of IL1RN mRNA levels (dCas9-PYL-HA, FLAG-ABI-P300, sgRNAs)
Experimental: To study how IL1RN expression levels change, total RNAs from the cell lysates generated in the above experiment were purified and then subjected to qPCR analysis to quantify mRNA levels.
Human embryonic kidney cell HEK293T (American Type Culture Collection, Manassas, Va.) was cultured in Dulbecco's modified Eagle's medium (DMEM) (Gibco) with 10% FBS (Atlanta Biologicals), 1× GlutaMax (Gibco, Thermo Fisher Scientific, Inc., Waltham, Mass.), and 1× penicillin/streptomycin (Pen/Strep; Gibco, Thermo Fisher Scientific, Inc., Waltham, Mass.). Cells (100,000/ml) were plated in 24-well or 10-cm cell culture plate the day before transfection. For each well of 24-well plate transfection, 500 ng of dCas9-PYL-HA, 420 ng of FLAG-ABI-P300, and a total amount of 200-ng mix of gRNAs, with a 50-ng per each gRNA, were mixed with 50×(v/w) Opti-MEM (Gibco, Thermo Fisher Scientific, Inc., Waltham, Mass.), then incubate with the same volume of 3 μg PEI-Opti-MEM solution for 20 minutes at room temperature. Then, 100 μL of PEI-combined plasmids were added to every single well of 24-well plate and cultured for 24 hours before experiments were performed. For a 10 cm plate, 1 mL of PEI-combined plasmids were needed. After six hours transfection, cells were washed and incubated for another 1-72 hours before experiments were performed.
Total RNA was extracted using the EZNA Total RNA Kit I (Omega Bio-tek, Inc., Norcross, Ga.). qPCR reactions were performed on cDNA prepared from 1,000 ng of total cellular RNA using the High-Capacity cDNA Reverse Transcription Kit (Applied Biosystems Co., Thermo Fisher Scientific, Inc., Foster City, Calif.). TaqMan qPCR probes (Thermo Fisher Scientific, Inc., Waltham, Mass. IL1RN, Hs00893626; GRM2, Hs00968358; HBA, Hs00361191; MYOD1 Hs02330075; GAPDH, Hs99999905) and Fast Advanced Master Mix (Life Technologies Co., Co., Thermo Fisher Scientific, Inc., Carlsbad, Calif.) were used in multiplexed reactions and 384-well format in a 7900HT Fast Real-Time PCR System (Applied Biosystems Co., Thermo Fisher Scientific, Inc., Foster City, Calif.). All measurements were performed at least in triplicate. Data were analyzed using the SDS software, version 2.4 (Applied Biosystems Co., Thermo Fisher Scientific, Inc., Foster City, Calif.), by the ΔΔCt method: the Ct values of target gene were normalized to Ct values of GAPDH, the folds of target gene expression changes were normalized to experimental controls. Analyzed data are reported as the mean±s.e.m. for biological replicates. In ChIP assays, the Ct values of antibodies pulled down segments were normalized to the Ct values of 10% input.

Structure (SMILES)	reversibility of IAA-induced luciferase expression after washing ([1]; 50 μM IAA for 24 hours, then washed with fresh media without IAA)	luciferase expression, IAA-responsive system ([1]; treated with IAA or ABA or DMSO for 24 hours)	expression of EGFP [2]	IL1RN mRNA expression with caged ABA, no UV light ([3]; 20 μM ABA-DMNB, not irradiated, vs DMSO)	IL1RN mRNA levels after uncaging by UV light ([3]; ABA-DMNB uncaged by exposure to UV light)
O=C(O)Cc1c[nH]c2ccccc12 [IAA, indole-3-acetic acid]	readily reversible	Only the proper combination of inducer with corresponding binding proteins could induce luciferase expression	Only the combination of the TIR1 mutant TIR* and the IAA addition induced the expression of EGFP	–	–
COc1cc(COC(=O)/C=C(C)\C=C\[C@@]2(O)C(C)=CC(=O)CC2(C)C)c([N+](=O)[O-])cc1OC [ABA-DMNB]	–	–	–	at levels of negative control (DMSO)	mRNA levels increased
